# Data: US10722501B2 (BAYER AKTIENGESELLSCHAFT, priority 2016, dated 2020)
# Biological target: T1, recombinant full-length human prolyl endopeptidase (PREP) (Homo sapiens, UniProt P48147)
# T1 construct: To recombinant full-length human prolyl endopeptidase (PREP, R&D-Systems, 4308-SE); purchased R&D-Systems 4308-SE
# T1 sequence (P48147 1-710): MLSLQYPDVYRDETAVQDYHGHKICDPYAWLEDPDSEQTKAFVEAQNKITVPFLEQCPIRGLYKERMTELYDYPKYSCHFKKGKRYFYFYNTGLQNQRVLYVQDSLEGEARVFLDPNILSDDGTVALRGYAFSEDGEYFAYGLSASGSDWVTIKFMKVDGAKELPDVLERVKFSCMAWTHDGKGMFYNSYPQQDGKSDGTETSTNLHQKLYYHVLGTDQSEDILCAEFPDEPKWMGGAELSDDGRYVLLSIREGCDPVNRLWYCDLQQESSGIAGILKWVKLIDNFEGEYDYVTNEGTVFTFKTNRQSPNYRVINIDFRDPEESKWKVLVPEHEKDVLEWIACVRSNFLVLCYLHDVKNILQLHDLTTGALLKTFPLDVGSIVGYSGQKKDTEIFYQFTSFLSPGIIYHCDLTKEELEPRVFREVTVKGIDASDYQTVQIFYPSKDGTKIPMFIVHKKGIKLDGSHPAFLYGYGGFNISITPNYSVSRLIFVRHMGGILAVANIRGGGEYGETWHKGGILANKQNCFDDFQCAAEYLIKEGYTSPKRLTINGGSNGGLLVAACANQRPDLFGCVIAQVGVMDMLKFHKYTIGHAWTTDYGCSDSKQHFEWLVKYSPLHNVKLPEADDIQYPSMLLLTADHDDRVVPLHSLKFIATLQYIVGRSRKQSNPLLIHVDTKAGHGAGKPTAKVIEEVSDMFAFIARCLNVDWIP
# Experiment: Biochemical human prolyl endopeptidase (PREP) assay with fluorescently labelled substrate
# Details: substrate Z-Gly-Pro-AMC 50 μM, 32° C., 60 min; some as mean values from multiple independent determinations
# Method in brief: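 Initial rates of fluorescence increase from 50 μM Z-Gly-Pro-AMC cleavage (ex 360/em 465 nm, 60 min, 32° C) give percent PREP activity versus no-compound control, and IC50 is interpolated. Enzyme used at 0.4 nM (final, example) in Tris pH 7.5 with EDTA, GSH, BSA and Brij-35; compounds span 1 nM to 30 μM.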
row,Compound,IC50
1,"O=C(C1CCCc2nn(Cc3ccc(Cl)c(Cl)c3)c(=O)n21)N1CCC(F)(F)C1 (racemic) [Example 45, (5RS)-2-(3,4-Dichlorobenzyl)-5-[(3,3-difluoropyrrolidin-1-yl)carbonyl]-5,6,7,8-tetrahydro[1,2,4]triazolo[4,3-a]pyridin-3(2H)-one]",1.6 nM
2,"Cc1ccc(Cn2nc3n(c2=O)C(C(=O)N2CCC(=O)C2)CCC3)cc1 (racemic) [Example 118, (5RS)-2-(4-Methylbenzyl)-5-[(3-oxopyrrolidin-1-yl)carbonyl]-5,6,7,8-tetrahydro[1,2,4]triazolo[4,3-a]pyridin-3(2H)-one]",5.6 nM
3,"O=C(C1CCCc2nn(Cc3ccc(Cl)s3)c(=O)n21)N1CCC(F)(F)C1 (racemic) [Example 54, (5RS)-2-[(5-Chloro-2-thienyl)methyl]-5-[(3,3-difluoropyrrolidin-1-yl)carbonyl]-5,6,7,8-tetrahydro[1,2,4]triazolo[4,3-a]pyridin-3(2H)-one]",1.3 nM
4,"O=C(C1CC(C(F)(F)F)Cc2nn(Cc3ccc(Cl)nc3)c(=O)n21)N1C[C@@H](F)[C@@H](F)C1 (single isomer, unassigned) [Example 249]",0.83 nM
5,"COc1cccc(Cn2nc3n(c2=O)C(C(=O)N2CCCC2)CCC3)c1 (racemic) [Example 20, (5RS)-2-(3-Methoxybenzyl)-5-(pyrrolidin-1-ylcarbonyl)-5,6,7,8-tetrahydro[1,2,4]triazolo[4,3-a]pyridin-3(2H)-one]",1.5 nM
6,"O=C(C1CCCc2nn(Cc3cccc(Cl)c3)c(=O)n21)N1CCCC1 (racemic) [Example 38, (5RS)-2-(3-Chlorobenzyl)-5-(pyrrolidin-1-ylcarbonyl)-5,6,7,8-tetrahydro[1,2,4]triazolo[4,3-a]pyridin-3(2H)-one]",1 nM
7,"Cc1cc(Cn2nc3n(c2=O)C(C(=O)N2CCCC2)CCC3)on1 (racemic) [Example 13, (5RS)-2-[(3-Methyl-1,2-oxazol-5-yl)methyl]-5-(pyrrolidin-1-ylcarbonyl)-5,6,7,8-tetrahydro[1,2,4]triazolo[4,3-a]pyridin-3(2H)-one]",5.4 nM
8,O=C(C1CCCc2nn(Cc3ccc(Cl)c(C(F)(F)F)c3)c(=O)n21)N1CCCC1 (racemic) [Example 37],0.83 nM
9,"O=C(C1CCCc2nn(Cc3ccc(Cl)c(Cl)c3)c(=O)n21)N1CCCC1 (racemic) [Example 39, (5RS)-2-(3,4-Dichlorobenzyl)-5-(pyrrolidin-1-ylcarbonyl)-5,6,7,8-tetrahydro[1,2,4]triazolo[4,3-a]pyridin-3(2H)-one]",0.55 nM
10,"O=C(C1CCc2nn(Cc3ccnc(C(F)(F)F)c3F)c(=O)n21)N1C[C@@H](F)[C@@H](F)C1 (single isomer, unassigned) [Example 177]",6.9 nM
11,"O=C(C1CC(C(F)(F)F)Cc2nn(Cc3ncc(Cl)cc3F)c(=O)n21)N1CC[C@H](F)C1 (single isomer, unassigned) [Example 265]",1.3 nM
12,"O=C(C1CC(C(F)(F)F)Cc2nn(Cc3ccc(Cl)cn3)c(=O)n21)N1CC[C@H](F)C1 (single isomer, unassigned) [Example 315]",1.4 nM
13,"O=C(C1CCc2nn(Cc3ccnc(C(F)(F)F)c3F)c(=O)n21)N1C[C@@H](F)[C@@H](F)C1 (single isomer, unassigned) [Example 176]",445 nM
14,"CC1CCC(C(=O)N2C[C@@H](F)[C@@H](F)C2)n2c1nn(Cc1ccc(C(F)(F)F)nc1)c2=O (mixture of isomers) [Example 325, (5RS,8RS)-5-{[(3R,4S)-3,4-Difluoropyrrolidin-1-yl]carbonyl}-8-methyl-2-{[6-(trifluoromethyl)pyridin-3-yl]methyl}-5,6,7,8-tetrahydro[1,2,4]triazolo[4,3-a]pyridin-3(2H)-one]",1.5 nM
15,"O=C(C1C(C(F)(F)F)CCc2nn(Cc3ncc(Cl)cc3F)c(=O)n21)N1CC[C@H](F)C1 (single isomer, unassigned) [Example 295]",12 nM
16,"Cc1ccc(Cn2nc3n(c2=O)C(C(=O)N2CCCC2)C(C)CC3)cc1 (single isomer, unassigned) [Example 139, (5RS,6RS)-6-Methyl-2-(4-methylbenzyl)-5-(pyrrolidin-1-ylcarbonyl)-5,6,7,8-tetrahydro[1,2,4]triazolo[4,3-a]pyridin-3(2H)-one]",0.87 nM

# Second part, the molecule after the results:
row,IC50,Compound
1,0.85 nM,"O=C([C@@H]1CCCc2nn(Cc3cc(C(F)(F)F)nc4ccccc34)c(=O)n21)N1CC[C@H](F)C1 [Example 539, (5S)-5-{[(3S)-3-Fluoropyrrolidin-1-yl]carbonyl}-2-{[2-(trifluoromethyl)quinolin-4-yl]methyl}-5,6,7,8-tetrahydro[1,2,4]triazolo[4,3-a]pyridin-3(2H)-one]"
2,1.1 nM,"O=C([C@@H]1CCCc2nn(CC3(c4ccc(F)cc4F)CC3)c(=O)n21)N1CCC(F)(F)C1 [Example 359, (5S)-2-{[1-(2,4-Difluorophenyl)cyclopropyl]methyl}-5-[(3,3-difluoropyrrolidin-1-yl)carbonyl]-5,6,7,8-tetrahydro[1,2,4]triazolo[4,3-a]pyridin-3(2H)-one]"
3,15 nM,"O=C([C@@H]1CCCc2nn(CCc3ncc(C(F)(F)F)cc3Cl)c(=O)n21)N1CC(F)C1 [Example 518, (5S)-2-{[3-Chloro-5-(trifluoromethyl)pyridin-2-yl]ethyl}-5-[(3-fluoroazetidin-1-yl)carbonyl]-5,6,7,8-tetrahydro[1,2,4]triazolo[4,3-a]pyridin-3(2H)-one]"
4,3.8 nM,"O=C([C@@H]1CCCc2nn(CC3(c4cccc(Cl)n4)CC3)c(=O)n21)N1CC(F)C1 [Example 348, (5S)-2-{[1-(6-Chloropyridin-2-yl)cyclopropyl]methyl}-5-[(3-fluoroazetidin-1-yl)carbonyl]-5,6,7,8-tetrahydro[1,2,4]triazolo[4,3-a]pyridin-3(2H)-one]"
5,25.5 nM,"O=C([C@@H]1CCCc2nn(Cc3nc(C(F)(F)F)no3)c(=O)n21)N1CCC(F)(F)C1 [Example 501, (5S)-5-[(3,3-Difluoropyrrolidin-1-yl)carbonyl]-2-{[3-(trifluoromethyl)-1,2,4-oxadiazol-5-yl]methyl}-5,6,7,8-tetrahydro[1,2,4]triazolo[4,3-a]pyridin-3(2H)-one]"
6,1.35 nM,"O=C([C@@H]1CCCc2nn(Cc3ncc(Cl)cc3F)c(=O)n21)N1CC(F)C1 [Example 407, (5S)-2-[(5-Chloro-3-fluoropyridin-2-yl)methyl]-5-[(3-fluoroazetidin-1-yl)carbonyl]-5,6,7,8-tetrahydro[1,2,4]triazolo[4,3-a]pyridin-3(2H)-one]"
7,0.37 nM,"O=C(C1CCCc2nn(Cc3ccc(Cl)nc3)c(=O)n21)N1CC[C@H](F)C1 (mixture of isomers) [Example 561, (5RS)-2-[(6-Chlorpyridin-3-yl)methyl]-5-{[(3S)-3-fluorpyrrolidin-1-yl]carbonyl}-5,6,7,8-tetrahydro[1,2,4]triazolo[4,3-a]pyridin-3(2H)-on]"
8,0.32 nM,"O=C([C@@H]1CCCc2nn(CC3(c4ccc(F)cc4)CC3)c(=O)n21)N1CC[C@H](F)C1 [Example 352, (5S)-2-{[1-(4-Fluorophenyl)cyclopropyl]methyl}-5-{[(3S)-3-fluoropyrrolidin-1-yl]carbonyl}-5,6,7,8-tetrahydro[1,2,4]triazolo[4,3-a]pyridin-3(2H)-one]"
9,0.48 nM,"CC1Cc2nn(Cc3ccc(F)c(Cl)c3)c(=O)n2C(C(=O)N2CC(F)C2)C1 (racemic) [Example 340, (5RS,7RS)-2-(3-Chloro-4-fluorobenzyl)-5-[(3-fluoroazetidin-1-yl)carbonyl]-7-methyl-5,6,7,8-tetrahydro[1,2,4]triazolo[4,3-a]pyridin-3(2H)-one]"
10,0.91 nM,"O=C([C@@H]1CCCc2nn(Cc3cc(C(F)(F)F)nc4ccccc34)c(=O)n21)N1CC(F)C1 [Example 494, (5S)-5-[(3-Fluoroazetidin-1-yl)carbonyl]-2-{[2-(trifluoromethyl)quinolin-4-yl]methyl}-5,6,7,8-tetrahydro[1,2,4]triazolo[4,3-a]pyridin-3(2H)-one]"
11,189 nM,"O=C(C1CCCc2nn(Cc3ncc(C(F)(F)F)cc3Cl)c(=O)n21)N1CC(O)C1 (racemic) [Example 403, (5RS)-2-{[3-Chloro-5-(trifluoromethyl)pyridin-2-yl]methyl}-5-[(3-hydroxyazetidin-1-yl)carbonyl]-5,6,7,8-tetrahydro[1,2,4]triazolo[4,3-a]pyridin-3(2H)-one]"
12,2.5 nM,"O=C([C@@H]1CCCc2nn(Cc3ncc(F)cc3F)c(=O)n21)N1C[C@@H](F)[C@@H](F)C1 [Example 411, (5S)-2-[(3,5-Difluoropyridin-2-yl)methyl]-5-{[(3R,4S)-3,4-difluoropyrrolidin-1-yl]carbonyl}-5,6,7,8-tetrahydro[1,2,4]triazolo[4,3-a]pyridin-3(2H)-one]"
